{"source": "ChEMBL document CHEMBL1136020", "about": "“Synthesis and biological evaluation of an N10-Psec substituted pyrrolo[2,1-c][1,4]benzodiazepine prodrug” (Bioorg Med Chem Lett, 2002)", "key": {"[1]": {"test_system": "A2780", "experiment": "Tested for the cytotoxicity in A2780 ovarian cell line", "assay_type": "functional, cell-based", "details": "Homo sapiens"}, "[2]": {"experiment": "Ratio of cytotoxicity of cisR/normal cell line; not active", "assay_type": "functional"}, "[3]": {"test_system": "A2780", "experiment": "Tested for the cytotoxicity in A2780cisR ovarian cell line (cisR denotes resistance to cisplatin)", "assay_type": "functional, cell-based", "details": "Homo sapiens"}, "[4]": {"test_system": "SK-OV-3", "experiment": "Tested for the cytotoxicity in SKOV-3 ovarian cell line", "assay_type": "functional, cell-based", "details": "Homo sapiens"}, "[5]": {"test_system": "CH1", "experiment": "Tested for the cytotoxicity in CHI ovarian cell line", "assay_type": "functional, cell-based", "details": "Homo sapiens"}, "[6]": {"test_system": "CH1", "experiment": "Tested for the cytotoxicity in CHIcisR ovarian cell line", "assay_type": "functional, cell-based", "details": "Homo sapiens, CH1cisR"}, "[7]": {"experiment": "Ratio of cytotoxicity of cisR/normal cell line", "assay_type": "functional"}, "[8]": {"test_system": "RXF 393", "experiment": "Concentration required to decrease cell population by 50% on continuous exposure for 48 hr in Renal (RXF 393) cell line", "assay_type": "functional", "details": "Homo sapiens, RXF 393, 48 h; read-out: LC50 (the source's name)"}, "[9]": {"test_system": "SNB-75", "experiment": "Concentration required to restrict cell growth to 50% on continuous exposure for 48 hr in CNS (SNB-75) cell line", "assay_type": "functional", "details": "Homo sapiens, SNB-75, 48 h"}, "[10]": {"test_system": "RXF 393", "experiment": "Concentration required to restrict cell growth to 50% on continuous exposure for 48 hr in Renal (RXF 393) cell line", "assay_type": "functional", "details": "Homo sapiens, RXF 393, 48 h"}, "[11]": {"test_system": "SNB-75", "experiment": "Concentration required to decrease cell population by 50% on continuous exposure for 48 hr in CNS (SNB-75) cell line", "assay_type": "functional", "details": "Homo sapiens, SNB-75, 48 h; read-out: LC50 (the source's name)"}, "[12]": {"test_system": "NCI-H522", "experiment": "Concentration required to decrease cell population by 50% on continuous exposure for 48 hr in Lung ([…]) cell line", "assay_type": "functional", "details": "Homo sapiens, NCI-H522, 48 h; read-out: LC50 (the source's name)"}, "[13]": {"test_system": "MDA-MB-435", "experiment": "Concentration required to restrict cell growth to 50% on continuous exposure for 48 hr in Breast (MDA-MB-435) cell line", "assay_type": "functional", "details": "Homo sapiens, MDA-MB-435, 48 h"}, "[14]": {"test_system": "SK-MEL-5", "experiment": "Concentration required to decrease cell population by 50% on continuous exposure for 48 hr in Melanoma (SK-MEL-5) cell line", "assay_type": "functional", "details": "Homo sapiens, SK-MEL-5, 48 h; read-out: LC50 (the source's name)"}, "[15]": {"test_system": "SK-MEL-5", "experiment": "Concentration required to restrict cell growth to 50% on continuous exposure for 48 hr in Melanoma (SK-MEL-5) cell line", "assay_type": "functional", "details": "Homo sapiens, SK-MEL-5, 48 h"}, "[16]": {"test_system": "MDA-MB-435", "experiment": "Concentration required to decrease cell population by 50% on continuous exposure for 48 hr in Breast (MDA-MB-435) cell line", "assay_type": "functional", "details": "Homo sapiens, MDA-MB-435, 48 h; read-out: LC50 (the source's name)"}, "[17]": {"test_system": "COLO 205", "experiment": "Concentration required to decrease cell population by 50% on continuous exposure for 48 hr in Colon (COLO 205) cell line C", "assay_type": "functional", "details": "Homo sapiens, COLO 205, 48 h; read-out: LC50 (the source's name)"}, "[18]": {"test_system": "NCI-H522", "experiment": "Concentration required to restrict cell growth to 50% on continuous exposure for 48 hr in Lung ([…]) cell line", "assay_type": "functional", "details": "Homo sapiens, NCI-H522, 48 h"}, "[19]": {"test_system": "COLO 205", "experiment": "Concentration required to restrict cell growth to 50% on continuous exposure for 48 hr in Colon (CoIo 205) cell line", "assay_type": "functional", "details": "Homo sapiens, COLO 205, 48 h"}}, "note": "Values joined by “and” are separate entries in the source; they are usually repeats but may differ in a detail not shown here. Identical values can stand only once. Active and inactive are the calls of the source. The calls are words filed in the database; no cut-off is given here."}
{"smiles": "COc1cc2c(cc1OC)N(C(=O)OCCSc1ccccc1)[C@@H](O)[C@@H]1CCCN1C2=O", "values": [{"measurement": "IC50", "setting": "[1]", "result": "> 25000", "unit": "nM"}, {"measurement": "Resistance factor", "setting": "[2]", "result": "inactive"}, {"measurement": "IC50", "setting": "[3]", "result": "> 25000", "unit": "nM"}, {"measurement": "IC50", "setting": "[4]", "result": "> 25000", "unit": "nM"}, {"measurement": "IC50", "setting": "[5]", "result": "> 25000", "unit": "nM"}, {"measurement": "IC50", "setting": "[6]", "result": "> 25000", "unit": "nM"}]}
{"smiles": "COc1cc2c(cc1OC)C(=O)N1CCC[C@H]1C=N2", "values": [{"measurement": "IC50", "setting": "[1]", "result": 64, "unit": "nM"}, {"measurement": "IC50", "setting": "[3]", "result": 155, "unit": "nM"}, {"measurement": "Resistance factor", "setting": "[7]", "result": "2.4 and 1.3"}, {"measurement": "IC50", "setting": "[4]", "result": 1700, "unit": "nM"}, {"measurement": "IC50", "setting": "[5]", "result": 82, "unit": "nM"}, {"measurement": "IC50", "setting": "[6]", "result": 110, "unit": "nM"}]}
{"smiles": "COc1cc2c(cc1OC)N(C(=O)OCCS(=O)(=O)c1ccccc1)[C@@H](O)[C@@H]1CCCN1C2=O", "values": [{"measurement": "CC50", "setting": "[8]", "result": 2970, "unit": "nM"}, {"measurement": "GI50", "setting": "[9]", "result": 720, "unit": "nM"}, {"measurement": "IC50", "setting": "[1]", "result": 480, "unit": "nM"}, {"measurement": "GI50", "setting": "[10]", "result": 240, "unit": "nM"}, {"measurement": "CC50", "setting": "[11]", "result": 9000, "unit": "nM"}, {"measurement": "IC50", "setting": "[3]", "result": 490, "unit": "nM"}, {"measurement": "CC50", "setting": "[12]", "result": 1380, "unit": "nM"}, {"measurement": "Resistance factor", "setting": "[7]", "result": "1 and 1.2"}, {"measurement": "GI50", "setting": "[13]", "result": 450, "unit": "nM"}, {"measurement": "CC50", "setting": "[14]", "result": 6780, "unit": "nM"}, {"measurement": "IC50", "setting": "[4]", "result": 560, "unit": "nM"}, {"measurement": "GI50", "setting": "[15]", "result": 290, "unit": "nM"}, {"measurement": "CC50", "setting": "[16]", "result": 4330, "unit": "nM"}, {"measurement": "CC50", "setting": "[17]", "result": 710, "unit": "nM"}, {"measurement": "IC50", "setting": "[5]", "result": 400, "unit": "nM"}, {"measurement": "IC50", "setting": "[6]", "result": 470, "unit": "nM"}, {"measurement": "GI50", "setting": "[18]", "result": 110, "unit": "nM"}, {"measurement": "GI50", "setting": "[19]", "result": 190, "unit": "nM"}]}
